The results in this text go back to patent publication US12427183B2, “Methods of treating cancer, infectious disease, and autoimmune disease using chemokines” (New York Society for the Relief of the Ruptured and …, priority 2016, dated 2025).

The subject of experiment [1] is purified pDCs from HDs or SSc patients. In words: IFN production by purified pDCs cultured with chemokine alone. Format: cell-based, human. To be noted: chemokine 10 μg/ml without CpG, results not shown. As for the experimental part:
(§1) PBMCs were prepared using Ficoll-Paque density gradient from fresh blood under internal Institutional Review Board-approved protocols. pDCs were isolated as previously described (Guiducci et al. 2008) using either using negative depletion (Miltenyi Biotech) or following cell sorting using a BD IFNLUX cell sorter. As part of the gating strategy, neutrophils were excluded by FSC/SSC and cells positive for CD14 (CD3 and CD19 as well) were first excluded in order to prevent the contamination by TLR8 positive cells and then positively gated on HLA-DR, CD123 and BDCA4 to purify the pDCs. All BDCA4+ cells also express BDCA2 (results not shown). As a result, pure pDCs were obtained and no markers for neutrophils (CD66) or myeloid cells were found by PCR. B cells were FACS sorted as CD19+ and monocytes as CD14+ cells. PBMCs were depleted of pDCs using BDCA4 beads from Miltenyi. pDCs were cultured at 10,000-30,000 cells per well in a 96-round bottom plate and incubated at 37° C., 5% CO2 and 95% humidity. After 24 hours of culture, the supernatant was collected for ELISA or Mutiplex cytokine assays. In some culture conditions, cells were cultured with the PI3Kδ inhibitor, CAL-101 (Selleck chemicals) for 24 hours. The RNA-based TLR8 agonist, ORN8-L previously described (Guidacci et al. 2013) was synthetized by Chemgenes Corporation. For the TLR8 activation assay, pDCs were incubated in complete media alone, 200 μg/ml ORN8-L in complete media or 200 μg/ml ORN8-L+ 10 μg/ml CXCL4 (R&D systems).
Supernatant from pDCs 24 hour culture was used for quantification of secreted chemokines and cytokines and measured with the use of an enzyme-linked immunosorbent assay (ELISA) or Luminex multiplex-beads immunoassay. CXCL4 ELISA (Ray Biotech) and IFNα, IP-10, IL-6, TNF Luminex assay (Millipore) was performed according to the manufacturer's protocol. Due to the variability in the number of cells obtained from the different patients and so we could compare the values across donors, all results were normalized to 10,000 cells. Of note, for all donors, pDCs were plated between 10,000-30,000 cells.
When purified pDCs from HDs or SSc patients were cultured with CXCL4 alone ([…]), there was no effect on IFN production.
(§2) 5×10^5 PBMCs or pDC-depleted PBMCs were cultured in 96 wells plate and stimulated with 0.25 μM CpG DNA with or without 10 μg/ml CXCL4, CXCL10, CXCL12 or CCL5. Freshly isolated pDCs were resuspended at 5×10^4 cells/100 μl RPMI 1640 medium (Gibco) and stimulated with the 0.25 μM CpG with/without 10 μg/ml indicated chemokines. The supernatant was harvested after 18 h and IFN-α was measured by ELISA.

Experiment [2] deals with TLR9-mediated activation of pDCs. In words: TLR9-mediated activation of purified pDCs (CpG with or without chemokines), IFN-α ELISA. The note with it: for TLR9-induced response (IFN-α secretion) by pDCs / IFNα production from TLR9 in pDCs from HDs: CpG 0.25 μM; for TLR9-induced response (IFN-α secretion) by pDCs: chemokine 10 μg/ml (Example 17); for dependence of IFN-α superinduction on chemokine receptors: with AMG487 100 nM, AMD3100 10 μg/ml, anti-CXCR7 11G8 10 μg/ml, J113863 1.5 μM or Vicriviroc 0.1 μM; for IFNα production from TLR9 in pDCs from HDs: chemokine 10 μg/ml (Example 9). It is filed as cell-based, human.

In experiment [3] the test system is PBMCs and pDC-depleted PBMCs. In words: IFN-α production in PBMCs and pDC-depleted PBMCs cultured with CpG and chemokines (ELISA). Format: cell-based, human. To be noted: CpG 0.25 μM + chemokine 10 μg/ml. How it is done: PBMCs were prepared using Ficoll-Paque density gradient (GE Healthcare) as previously described (Guiducci et al., 2008).
pDCs were isolated from PBMCs by positive selection using BDCA4-MicroBead Kit as previously described (Guiducci et al., 2008). pDC-depleted PBMC were prepared by removing BDCA4-positive cells from PBMC using microbeads.
as §2
As shown above, CXCL4 can increase IFN-α production by TLR9-activated pDCs. Thus it was tested whether other chemokines may impact TLR9 signaling in pDCs. Purified pDCs were left unstimulated (Unstim.) or cultured with CpG (0.25 μM) alone or with the indicated chemokines at 10 μg/ml. IFN-α secretion was quantified by ELISA. Strikingly, it was observed that a set of chemokines, including CXCL4, CXL10, CXCL12 and CCL5, were able to superinduce TLR9-induced response by pDCs (FIG. 18A), while they had no effect when used alone (results not shown). […] This also raised questions as to the specificity and mechanism for this effect. First, as other DNA sensors have been described to induce IFN-α in immune cells (Barrat et al., 2016), it was tested to see if these chemokines altered the specificity of the CpGs for TLR9 and if the IFN-α response was restricted to pDCs. Total PBMCs or PBMCs where pDCs were depleted (PBMC-ΔpDCs) were incubated with CpGs and either CXCL4, CXCL10, CXCL12 or CCL5 and IFN-α production was quantified by ELISA.
On the technique in general: In an ELISA, binding on a coated surface is turned into a signal by an enzyme label.

Another experiment relates to pDCs of HDs. In words: TLR gene expression in purified pDCs from HDs cultured with cytokines or chemokines (qPCR). It is filed as cell-based, human. The note with it: 24 hours; for induction of TLR8 expression on pDCs of HDs: purified pDCs from HDs, IFN-α and IFN-γ 10 ng/ml, IL-12 100 ng/ml, IL-6 5 ng/ml, IL-10 10 ng/ml, TNF 1 ng/ml, TGF-β 10 ng/ml. As for the experimental part:
as §1
PCR reactions were performed as described previously with 10 ng of cDNA (Barrat et al. 2005). In brief, RNA was extracted from cells using the Qiagen RNeasy Mini Kit. Quantity of RNA was measured by Nanodrop and high-capacity cDNA Reverse Transcription kit was used to generate 20-50 ng cDNA. Gene expression levels were calculated based on relative threshold cycle (Ct) values. This was done using the formula Relative Ct=100×1.8 (HSK-GENE), where HSK is the mean CT of duplicate housekeeping gene runs (we used Ubiquitin), GENE is the mean CT of duplicate runs of the gene of interest, and 100 is arbitrarily chosen as a factor to bring all values above 0.
In particular, CXCL4 or IP-10 (two CXCR3B agonists) (10 μg/ml each) had no impact on TLR8 nor TLR7 and TLR9 expression levels in pDCs (FIG. 2C).

The subject of experiment [4] is TLR9-mediated activation of human B cells. In words: TLR9-mediated activation of human B cells (CpG with or without chemokines). It is filed as cell-based. To be noted: chemokine 10 μg/ml; for activation of B cells via TLR9 as shown by the production of IL-6: CpG 0.15 μM, ELISA. How it is done: as §1
IL-6, TNF, and IL-10 gene levels were measured at 6 hours post culture using PCR. The secretion of cytokines/chemokines in the supernatants was quantified using Luminex. CD83, CD80, CD86 and CD69 expression was measured by flow cytometry at 24 hour post culture.
Human B cells were purified and cultured for 6 hours or 24 hours either with medium only, with CpG-C (at 0.15 μM) alone or with a combination of CpG-C and CXCL4 (at 10 μg/ml). IL-6 gene levels was measured at 6 hour post culture by PCR and CD83, CD80, CD86 and CD69 expression was measured by flow cytometry at 24 hour post culture.
Purified B cells from HDs were cultured in media alone (control), with either a CpG TLR9 agonist (0.15 μM) or with CpG and either CXCL4, CXCL10, CXCL9, CXCL4, CXCL7 or CXCL12 (all at 10 μg/ml). IL-6 was quantified in the supernatants by ELISA.
Purified B cells from HDs were cultured in media alone (control), with either a CpG TLR9 agonist (0.25 μM) or with CpG and CXCL4 or CXCL10 (10 μg/ml) alone or in the presence of the CXCR3 inhibitor AMG487 at 0, 0.1, 1 or 10 μM for 6 hours or 24 hours. IL-6 was quantified by ELISA at 24 hours and IL-6 and TNF gene expression levels were quantified by q-PCR at 6 hours and CD83, CD80, CD86 and CD69 expression was measured by flow cytometry at 24 hours post culture.

“CCL5: small chemokine belonging to the CC chemokine family”: the “IFN-α secretion by pDCs, chemokine used alone” value (“IFN-α secretion by pDCs” for short) in experiment [1] was “no effect”. Besides, in experiment [2], the “TLR9-induced response (IFN-α secretion) by pDCs” value (“TLR9-induced response” below) is recorded as “superinduce” and the “dependence of IFN-α superinduction on chemokine receptors” value (“dependence of IFN-α superinduction” for short) was “independent of their chemokine receptors”. Moreover, the “IFN-α production in absence of the pDCs (PBMC-ΔpDCs versus total PBMCs)” value in experiment [3] was “dramatic decrease”.
For “CXCL10: small chemokine belonging to the CXC chemokine family and a ligand for the receptor CXCR3”, the “TLR8, TLR7 and TLR9 expression levels in pDCs” value in the experiment with pDCs of HDs (10 μg/ml each, pDCs from HDs) is reported as “no impact”. Further, the “IFN-α secretion by pDCs” value in experiment [1] is “no effect”. In experiment [2], the “IFNα production from TLR9 in pDCs from HDs” value is “potentiated”, the “TLR9-induced response” value is listed as “superinduce” and the “dependence of IFN-α superinduction” value was “independent of their chemokine receptors”. The “effect of inhibition of CXCR3 on the chemokine's inhibition of TLR9 in B cells” value in experiment [4] (CXCR3 inhibitor AMG487 0.1, 1 or 10 μM, CpG 0.25 μM, 6 or 24 hours) was “no effect”. For the same molecule, the “activation of B cells via TLR9 as shown by the production of IL-6” value (“activation of B cells via TLR9 as shown” for short) in experiment [4] was “inhibited”. In addition, the “IFN-α production in absence of the pDCs (PBMC-ΔpDCs versus total PBMCs)” value in experiment [3] is “dramatic decrease”.
Regarding “CXCL12: stromal cell-derived factor-1, small chemokine belonging to the CXC chemokine family”, the “IFN-α secretion by pDCs” value in experiment [1] is “no effect”. In addition, in experiment [2], the “IFNα production from TLR9 in pDCs from HDs” value is “potentiated”, the “TLR9-induced response” value is “superinduce” and the “dependence of IFN-α superinduction” value is “independent of their chemokine receptors”. Further, the “activation of B cells via TLR9 as shown” value in experiment [4] is recorded as “inhibited”. Besides, the “IFN-α production in absence of the pDCs (PBMC-ΔpDCs versus total PBMCs)” value in experiment [3] is given as “dramatic decrease”.
On to IFN-α, for which, in the experiment with pDCs of HDs, the “induction of TLR8 expression on pDCs of HDs” value (“induction of TLR8 expression” below) is on record as “none of these molecules could induce TLR8”.
The same measure, in the same setting: next, “IL-6: cytokine added to pDC culture at 5 ng/ml”: “none of these molecules could induce TLR8”; TGF-β: “none of these molecules could induce TLR8”.
For the molecule heparin [reference compound], the “superinduction of IFN-α by all four chemokines (CXCL4, CXCL10, CXCL12, CCL5)” value in experiment [2] (heparin 1 U/ml, CpG-activated pDCs) is “reduced”.

B1: CXCL9: belongs to the CXC chemokine family, also known as MIG (protein, UniProt Q07325 23-125, looked up)
C-X-C motif chemokine 9: TPVVRKGRCSCISTNQGTIHLQSLKDLKQFAPSPSCEKIEIIATLKNGVQTCLNPDSADVKELIKKWEKQVSQKKKQKNGKKHQKKKVLKVRKSQRSRQKKTT
For B1, the “activation of B cells via TLR9 as shown” value in experiment [4] was “inhibited”.

B2: IFN-γ: cytokine added to pDC culture at 10 ng/ml (protein, UniProt P01579 24-161, looked up)
Interferon gamma: QDPYVKEAENLKKYFNAGHSDVADNGTLFLGILKNWKEESDRKIMQSQIVSFYFKLFKNFKDDQSIQKSVETIKEDMNVKFFNSNKKKRDDFEKLTNYSVTDLNVQRKAIHELIQVMAELSPAAKTGKRKRSQMLFRG
Take B2: the “induction of TLR8 expression” value in the experiment with pDCs of HDs is “none of these molecules could induce TLR8”.

B3: IL-12: cytokine added to pDC culture at 100 ng/ml (protein, UniProt P29459 23-219; P29460 23-328, looked up)
Interleukin-12 subunit alpha: RNLPVATPDPGMFPCLHHSQNLLRAVSNMLQKARQTLEFYPCTSEEIDHEDITKDKTSTVEACLPLELTKNESCLNSRETSFITNGSCLASRKTSFMMALCLSSIYEDLKMYQVEFKTMNAKLLMDPKRQIFLDQNMLAVIDELMQALNFNSETVPQKSSLEEPDFYKTKIKLCILLHAFRIRAVTIDRVMSYLNAS
Interleukin-12 subunit beta: IWELKKDVYVVELDWYPDAPGEMVVLTCDTPEEDGITWTLDQSSEVLGSGKTLTIQVKEFGDAGQYTCHKGGEVLSHSLLLLHKKEDGIWSTDILKDQKEPKNKTFLRCEAKNYSGRFTCWWLTTISTDLTFSVKSSRGSSDPQGVTCGAATLSAERVRGDNKEYEYSVECQEDSACPAAEESLPIEVMVDAVHKLKYENYTSSFFIRDIIKPDPPKNLQLKPLKNSRQVEVSWEYPDTWSTPHSYFSLTFCVQVQGKSKREKKDRVFTDKTSATVICRKNASISVRAQDRYYSSSWSEWASVPCS
In the case of B3, the “induction of TLR8 expression” value in the experiment on pDCs of HDs is on record as “none of these molecules could induce TLR8”.

B4: IL-10: cytokine added to pDC culture at 10 ng/ml (protein, UniProt P22301 19-178, looked up)
Interleukin-10: SPGQGTQSENSCTHFPGNLPNMLRDLRDAFSRVKTFFQMKDQLDNLLLKESLLEDFKGYLGCQALSEMIQFYLEEVMPQAENQDPDIKAHVNSLGENLKTLRLRLRRCHRFLPCENKSKAVEQVKNAFNKLQEKGIYKAMSEFDIFINYIEAYMTMKIRN
With B4, the “induction of TLR8 expression” value with pDCs of HDs is “none of these molecules could induce TLR8”.
